System: not listed separately
Assay: Paraffin wax solubility test
Assay type: physicochemical
Details: 2.0 g paraffin wax in 98 g solvent, 25° C., stirring at 350 rpm

| SMILES | DISSOLUTION TIME [min] |
| --- | --- |
| CCCCCCCCCCCC(=O)OCC(CC)CCCC (stereo not drawn) [2-ETHYLHEXYL LAURATE] | 930 |
| CCCCCCCCCCCC(=O)OCCC(C)C [ISOAMYL LAURATE] | 620 |
| CCCCCCCCCCCC(=O)OCC(C)C [ISOBUTYL LAURATE] | 340 |
| CCCCCCCCCCCC(=O)OC(C)C [ISOPROPYL LAURATE] | 102 |
| CCCCCCCCCCCC(=O)OC [METHYL LAURATE] | 300 |

Same assay, conditions: 2.0 g paraffin wax in 98 g solvent, 25° C., up to 24 hours stirring

| SMILES | OBSERVATION |
| --- | --- |
| CCCCCCCCCC(=O)N(C)C | UNDISSOLVED |
| O=C1CCCCC1 [CYCLOHEXANONE] | UNDISSOLVED |
| C[S+](C)[O-] [DIMETHYL SULFOXIDE] | UNDISSOLVED |
| CC1COC(=O)O1 (stereo not drawn) [PROPYLENE CARBONATE] | UNDISSOLVED |
| OCC1CCCO1 (stereo not drawn) [TETRAHYDROFURFURAL ALCOHOL] | UNDISSOLVED |

System: wheat
Assay: Field trial: wheat cover crop burndown with glyphosate plus adjuvant at full tillering
Assay type: in vivo
Details: 14 DAT, adjuvant rate 10 g/L, glyphosate 420 g ae/ha
Experimental: Adjuvant x Adjuvant rate effect on wheat cover crop burndown with glyphosate at full tillering stage.
A bifactorial trial was conducted consisting of […] treatments, comprised of a combination of 10 adjuvants (factor A) and 2 adjuvants rates (factor B), plus three reference treatments (Table 6).
Prior to treatment application, two plots per block were chosen to record wheat height and tiller number per plant. In each plot, the height of the tallest and shortest plant was measured, and the tillers counted.
Herbicide application was done using a single-nozzle boom connected to a backpack CO2 pressurized system. Each plot measured 3 ft×20 ft. After 14 and 28 days of application, wheat desiccation was evaluated visually using a 0-100% scale, where 0 corresponds to absence of injury symptoms and 100% corresponds to plant death.

| SMILES | Wheat desiccation (%) |
| --- | --- |
| N.N.O=S(=O)(O)O [Ammonium sulfate] | 80 |

Same assay, conditions: 28 DAT, adjuvant rate 10 g/L, glyphosate 420 g ae/ha

| SMILES | Wheat desiccation (%) |
| --- | --- |
| N.N.O=S(=O)(O)O [Ammonium sulfate] | 95 |

— US12599130B2, “Liquid agricultural adjuvant” (Oro Agri Inc., priority 2019, dated 2026)
